From paper PMC5607274, “An iterative compound screening contest method for identifying target protein inhibitors using the tyrosine-protein kinase Yes” (Scientific Reports, 2017)

What follows are molecules tested against T1, human recombinant Yes [a.a. 2–543 (end)] (Homo sapiens, UniProt P07947) (assay: ADP-Glo kinase assay, inhibition rates of Yes phosphorylation activity (first and second screening)). Conditions: first screening; mean of n = 4 wells; 10 μmol L−1 compound.
T1 construct: human recombinant Yes [a.a; 2–543 (end)]; purchased BPS Bioscience 40488
T1 sequence (P07947 2-543): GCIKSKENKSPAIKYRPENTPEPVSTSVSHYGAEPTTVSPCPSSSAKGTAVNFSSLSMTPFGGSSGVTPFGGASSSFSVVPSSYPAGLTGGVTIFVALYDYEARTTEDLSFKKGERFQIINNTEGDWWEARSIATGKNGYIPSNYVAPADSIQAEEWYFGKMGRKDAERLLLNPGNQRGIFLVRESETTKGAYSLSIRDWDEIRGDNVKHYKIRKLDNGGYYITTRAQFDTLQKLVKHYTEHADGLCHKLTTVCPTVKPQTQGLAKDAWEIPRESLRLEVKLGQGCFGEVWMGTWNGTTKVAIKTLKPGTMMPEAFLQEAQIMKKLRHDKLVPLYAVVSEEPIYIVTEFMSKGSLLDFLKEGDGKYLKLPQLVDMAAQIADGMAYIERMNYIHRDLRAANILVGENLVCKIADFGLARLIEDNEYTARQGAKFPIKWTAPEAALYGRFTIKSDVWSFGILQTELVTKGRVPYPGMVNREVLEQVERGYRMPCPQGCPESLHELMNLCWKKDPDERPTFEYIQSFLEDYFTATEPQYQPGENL
Assay type: biochemical
Outline: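 ADP-Glo luminescence measured inhibition of human recombinant Yes (a.a. 2–543) phosphorylation activity. In the first screen, each compound ran in 4 wells and inhibition rates were averaged. The second screen retested hits as compounds dissolved from fresh powder.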
`Cc1cn2nc(NCc3ccc(N4CCNC(=O)C4)cc3)sc2n1` [Compound Z397897560] was tested, and the “First screening IR (inhibition rate)” value was 39%.
For `O=C(c1ccoc1)N1CCC(NCc2cn[nH]c2-c2ccc(F)cc2)CC1` [Compound Z401874244], the “First screening IR (inhibition rate)” value was 36%.
With `O=C(CS(=O)(=O)CCCc1ccccc1)Nc1ccc(-n2ccnc2)nc1` [Compound Z407006622] the “First screening IR (inhibition rate)” value was -20%.
For `c1ccc(-n2ncc3c2CCNC3)cc1` [Compound Z409420032], the “First screening IR (inhibition rate)” value was -11%.
`CC(CCc1ccc(O)cc1)NC(=O)Nc1ccc(NC(=O)c2ccco2)cc1` (centres unmarked) [Compound Z412774176] was tested, and the “First screening IR (inhibition rate)” value was -12%.
`O=C(NCCSCc1ccccc1)Nc1ccc(NC(=O)c2ccco2)cc1` [Compound Z412775020] was tested, and the “First screening IR (inhibition rate)” value was 44%.
`O=C(NCc1cccc(C(F)(F)F)c1)Nc1ccc(NC(=O)c2ccco2)cc1` [Compound Z412775872] was tested, and the “First screening IR (inhibition rate)” value was -5%.
`CN(C)C(=O)c1ccc(Cl)c(NC(=O)N2CCc3ccccc3C2)c1` [Compound Z413336660] was tested, and the “First screening IR (inhibition rate)” value was 5%.
In the case of `COC(=O)c1cn(C)c(-c2ccc(NC(=O)c3ccc(CN4CCCCC4)cc3)cc2)c1C(=O)OC` [Compound Z415024646], the “First screening IR (inhibition rate)” value is reported as -1%.
In the case of `N#Cc1ccc(-c2cc(-c3ccccc3)c3cc(Br)ccc3n2)cc1` [Compound Z415722772], the “First screening IR (inhibition rate)” value is reported as -4%.
With `N#Cc1ccc(-c2cc(-c3ccc(Cl)cc3)c3ccccc3n2)cc1` [Compound Z415722774] the “First screening IR (inhibition rate)” value was 6%.
In the case of `CCS(=O)(=O)Cc1cccc(S(=O)(=O)N(C)C)c1` [Compound Z416890194], the “First screening IR (inhibition rate)” value is reported as -10%.
For `O=C(Cc1csc(NC(=O)c2ccccc2F)n1)NCC1Cc2ccccc2O1` (centres unmarked) [Compound Z420283836], the “First screening IR (inhibition rate)” value was -5%.
In the case of `Cc1nn(C)c2sc(C(=O)NC3CCN(C(=O)C(C)(C)C)CC3)cc12` [Compound Z421731088], the “First screening IR (inhibition rate)” value is reported as 3%.
In the case of `Cc1cc(C(=O)Nc2ccc(N3CCNC(=O)C3)c(Cl)c2)c2ccccc2n1` [Compound Z421986674], the “First screening IR (inhibition rate)” value is reported as 7%.
`O=C(NCc1ccnc(Oc2ccccc2)c1)c1ccc(OCc2cccnc2)cc1` [Compound Z424307182] was tested, and the “First screening IR (inhibition rate)” value was -22%.
With `Cc1n[nH]c(C)c1/C=C/C(=O)c1ccc(N2CCCC2=O)cc1` [Compound Z424802904] the “First screening IR (inhibition rate)” value was 6%.
In the case of `Cc1ccc(NC(=O)c2ccc(N3CC(O)=C(c4nc5ccccc5s4)C3=N)cc2)c(O)c1` [Compound Z425227654], the “First screening IR (inhibition rate)” value is reported as 1%.
`COc1cc2cc(C3CC(C4CC4)=NN3C(C)=O)c(Cl)nc2cc1OC` (centres unmarked) [Compound Z431511574] was tested, and the “First screening IR (inhibition rate)” value was -6%.
With `O=C(CCc1ccc(-c2ccccc2F)o1)Nc1cccc(NC(=O)CCn2ccnc2)c1` [Compound Z431623528] the “First screening IR (inhibition rate)” value was 5%.
With `Cc1ccccc1-n1c(=O)c2ccccc2n2c(=S)n(CN3CCN(CCC(C)C)CC3)nc12` [Compound Z431773138] the “First screening IR (inhibition rate)” value was 44%.
In the case of `COc1cccc(OCCN2CCN(c3cc(C(C)(C)C)nc4c(-c5ccc(Cl)cc5)c(C)nn34)CC2)c1` [Compound Z431973470], the “First screening IR (inhibition rate)” value is reported as 12%.
With `O=S1(=O)CCN(S(=O)(=O)Cl)CC1` [Compound Z432047124] the “First screening IR (inhibition rate)” value was 0%.
In the case of `COc1cccc(OCCN2CCN(c3cc(C)nc4c(-c5ccc(F)cc5)c(C(F)(F)F)nn34)CC2)c1` [Compound Z432102126], the “First screening IR (inhibition rate)” value is reported as -1%.
With `O=C(CCc1ccsc1)Nc1cc(C(F)(F)F)c[nH]c1=O` [Compound Z432185696] the “First screening IR (inhibition rate)” value was 4%.
For `c1ccc(Cn2cccn2)c(CNc2cncc(-n3cccn3)n2)c1` [Compound Z432289626], the “First screening IR (inhibition rate)” value was 41%.
`C=CCn1c(=O)c2ccccc2n2c(SCC(=O)Nc3ccc(N4CCN(C)CC4)cn3)nnc12` [Compound Z432326346] was tested, and the “First screening IR (inhibition rate)” value was 8%.
In the case of `CN(C)S(=O)(=O)c1cccc(CS(=O)(=O)c2ccccn2)c1` [Compound Z432528000], the “First screening IR (inhibition rate)” value is reported as 4%.
With `Cc1ccc(Oc2ccc(NC(=O)N3CCNC(=O)C3)cn2)cc1` [Compound Z435639920] the “First screening IR (inhibition rate)” value was -14%.
With `COc1cccc(OCCN2CCN(c3cc(C)nc4c(-c5ccc(Cl)cc5)c(C)nn34)CC2)c1` [Compound Z435980234] the “First screening IR (inhibition rate)” value was 3%.
In the case of `CC(C)c1noc(C(C)S(=O)(=O)C/C=C/c2ccccc2)n1` (centres unmarked) [Compound Z436400008], the “First screening IR (inhibition rate)” value is reported as 6%.
For `COc1cccc(OCCN2CCN(c3cc(C(C)(C)C)nc4c(-c5ccc(F)cc5)c(C)nn34)CC2)c1` [Compound Z439257332], the “First screening IR (inhibition rate)” value was -1%.
With `Cc1nn(C(C)(C)C)c2nc(C3CC3)cc(C(=O)NC(C)C)c12` [Compound Z441582602] the “First screening IR (inhibition rate)” value was -6%.
In the case of `Cn1ncc2c(N3CCN(CC[S+]([O-])c4cc(Cl)ccc4Cl)CC3)ncnc21` (centres unmarked) [Compound Z445169626], the “First screening IR (inhibition rate)” value is reported as 4%.
In the case of `COc1ccc(CNCc2cn[nH]c2-c2ccc(C)o2)cn1` [Compound Z446209214], the “First screening IR (inhibition rate)” value is reported as -2%.
`CN(C)c1ccc(CNC(=O)N2CCN(C3=NS(=O)(=O)c4ccccc43)CC2)cc1` [Compound Z449089632] was tested, and the “First screening IR (inhibition rate)” value was 1%.
`Cc1ccc2c(=O)c(C(=O)N(C)CC(=O)Nc3ccc(Cl)c(Cl)c3)c[nH]c2n1` [Compound Z454409356] was tested, and the “First screening IR (inhibition rate)” value was 45%.
For `Cc1oc(C)c(S(N)(=O)=O)c1C(=O)N1CCN(Cc2c(F)cccc2Cl)CC1` [Compound Z466082788], the “First screening IR (inhibition rate)” value was -3%.
In the case of `Cc1cc(CN(C)C(=O)NCc2ccc(N3CCCC3=O)cc2)no1` [Compound Z485637938], the “First screening IR (inhibition rate)” value is reported as -16%.
In the case of `CCN(Cc1ccc(Cl)s1)C(=O)NCc1ccnc(N2CCN(C)CC2)c1` [Compound Z508129336], the “First screening IR (inhibition rate)” value is reported as 9%.
In the case of `CS(=O)(=O)CS(=O)(=O)C(F)(F)F` [Compound Z540725378], the “First screening IR (inhibition rate)” value is reported as -4%.
For `Cc1ncc2c(n1)CCN(C(=O)NCc1cc(-c3ccccc3)no1)C2` [Compound Z558380580], the “First screening IR (inhibition rate)” value was 1%.
For `CCCn1c(=O)c2ccccc2n2c(=S)n(CN3CCC(C(=O)Nc4cc(C)ccn4)CC3)nc12` [Compound Z573186768], the “First screening IR (inhibition rate)” value was -4%.
`Cc1cccc(NC(=O)C2CCCN(c3nc(CN4CCOCC4)nc4sc(C)c(C)c34)C2)n1` (centres unmarked) [Compound Z573238670] was tested, and the “First screening IR (inhibition rate)” value was -5%.
For `O=C(Nc1cc(N2CCCS2(=O)=O)ccc1O)c1cccc(C(F)(F)F)c1` [Compound Z573928840], the “First screening IR (inhibition rate)” value was -18%.
For `N#CC(C(=O)CCc1ccc(F)cc1)c1nc2cc(Cl)ccc2c(=O)[nH]1` (centres unmarked) [Compound Z594627070], the “First screening IR (inhibition rate)” value was 1%.
For `O=C(CCNC(=O)c1cccs1)Nc1ccc2nc(-c3cccc(F)c3)[nH]c2c1` [Compound Z594945904], the “First screening IR (inhibition rate)” value was -4%.
`CN(c1ccc(NC(=O)N2CCN(C(=O)c3cccnc3)CC2)cc1F)C1CCCCC1` [Compound Z595406192] was tested, and the “First screening IR (inhibition rate)” value was 2%.
In the case of `Cc1cc(Br)c(O)c(C(=O)NCCC(=O)N2CCOCC2)c1` [Compound Z596098802], the “First screening IR (inhibition rate)” value is reported as 7%.
With `COc1ccc(NC(=O)C(=O)c2c(C)nn(-c3ccccc3)c2C)cc1OCc1cn2ccccc2n1` [Compound Z605682156] the “First screening IR (inhibition rate)” value was -5%.
In the case of `CC(C)c1nn(C)c(Cl)c1CNCc1ccc(N2CCOCC2)c(F)c1` [Compound Z635707390], the “First screening IR (inhibition rate)” value is reported as -12%.
`CCCn1c(NC(=O)c2ccc3c(c2)S(=O)(=O)N(C(C)C)C3=O)nc2ccccc21` [Compound Z641940000] was tested, and the “First screening IR (inhibition rate)” value was 10%.
In the case of `FC(F)(F)c1ccnc(Nc2ccc(N3CCCCCC3)cc2)n1` [Compound Z642699568], the “First screening IR (inhibition rate)” value is reported as -21%.
`COc1cc(Br)c(S(=O)(=O)N(C)C(=O)C2CC2)cc1OC` [Compound Z643690740] was tested, and the “First screening IR (inhibition rate)” value was 0%.
For `CC(Nc1ccc(C#N)cn1)c1ccc(OCc2cccnc2)cc1` (centres unmarked) [Compound Z644822950], the “First screening IR (inhibition rate)” value was 2%.
For `Cc1occc1C(=O)Nc1cc(Nc2nccc(C(F)(F)F)n2)ccc1F` [Compound Z645121524], the “First screening IR (inhibition rate)” value was 14%.
`COCCOc1ccc(CNc2ncnc3ccccc23)cn1` [Compound Z645525338] was tested, and the “First screening IR (inhibition rate)” value was -2%.
With `Cn1ncc2c(NCCOc3ccc4c(c3)OCO4)ncnc21` [Compound Z645593692] the “First screening IR (inhibition rate)” value was -38%.
With `CC(C)(C(=O)N1CCN(C(=O)C2CCC(=O)NC2)CC1)c1ccccc1` (centres unmarked) [Compound Z645877938] the “First screening IR (inhibition rate)” value was -20%.
For `Cc1cccc(C)c1OC1CCN(c2ncnc3c2cnn3C)CC1` [Compound Z646031500], the “First screening IR (inhibition rate)” value was 8%.
`O=C1OCCN1Cc1ccc(Nc2nccc(C(F)(F)F)n2)cc1` [Compound Z646432252] was tested, and the “First screening IR (inhibition rate)” value was 11%.
In the case of `Cn1cc(Nc2nccc(C(F)(F)F)n2)cn1` [Compound Z646439314], the “First screening IR (inhibition rate)” value is reported as 5%.
For `CC(NC(=O)Cn1nc(-c2ccccc2)ccc1=O)c1nc2ccccc2[nH]1` (centres unmarked) [Compound Z647256318], the “First screening IR (inhibition rate)” value was 5%.
In the case of `O=C(Nc1c[nH]ccc1=O)c1ccc2c(c1)CC(c1ccccc1)OC2=O` (centres unmarked) [Compound Z649184702], the “First screening IR (inhibition rate)” value is reported as -7%.
With `O=C(CCNC(=O)c1cc2cc(F)ccc2[nH]1)Nc1ccccn1` [Compound Z649200126] the “First screening IR (inhibition rate)” value was -10%.
With `CC(C)c1ccc2cc(C(=O)NCCN3CCS(=O)(=O)CC3)[nH]c2c1` [Compound Z649805708] the “First screening IR (inhibition rate)” value was -31%.
With `Cc1cnc(C(=O)Nc2ccc3nc(-c4ccc(F)cc4)[nH]c3c2)cn1` [Compound Z651750688] the “First screening IR (inhibition rate)” value was -2%.
`CS(=O)(=O)c1ccc(F)c(S(C)(=O)=O)c1` [Compound Z652718652] was tested, and the “First screening IR (inhibition rate)” value was 31%.
For `O=C(CCc1cnn(-c2ccccc2)c1)Nc1n[nH]c(-c2ccccn2)n1` [Compound Z653343234], the “First screening IR (inhibition rate)” value was -14%.

Same assay, conditions: second screening, dissolved from fresh powder; n = 4; 10 μmol L−1 compound
`O=C(NCCSCc1ccccc1)Nc1ccc(NC(=O)c2ccco2)cc1` [Compound Z412775020] was tested, and the “Second screening IR (inhibition rate)” value was -16%.
With `c1ccc(Cn2cccn2)c(CNc2cncc(-n3cccn3)n2)c1` [Compound Z432289626] the “Second screening IR (inhibition rate)” value was 18%.
